Measured values as given in US6767991B1, “Hepatitis C inhibitor peptides” (priority 1997, dated 2004).
Read-outs that look alike come from different tables or passages of the source. *1 amine or outer side, *2 acyl side, *3 side chain or, on linkers, in order; H or OH if unused. Where a SMILES comes first, the peptide text is derived from it. Where no end group is shown, it is not given here. [ ]: non-standard residue; d: D form. The star is where a group is joined. CH2(1-naphthyl) = c1ccc2c(C*)cccc2c1; Glutaryl = O=C(CCCC(=O)[*:2])[*:1]; Hyp = O=C(O)[C@@H]1C[C@@H](O)CN1; NMeI = CC[C@H](C)[C@H](NC)C(=O)O; AllylGly = C=CC[C@H](N)C(=O)O; Chg = N[C@H](C(=O)O)C1CCCCC1; Suc = O=C(CCC(=O)[*:2])[*:1]; Tle = CC(C)(C)[C@H](N)C(=O)O; Nva = CCC[C@H](N)C(=O)O; X1 = c1ccc2cc(C*)ccc2c1; X4 = Brc1cc(Br)cc(C*)c1; Abu = CC[C@H](N)C(=O)O; Ac3c = NC1(C(=O)O)CC1; OBn = c1ccc(CO*)cc1; X2 = Brc1cccc(C*)c1; X6 = Ic1cccc(C*)c1; Bn = c1ccc(C*)cc1

Molecular target: T1, HCV NS3 protease type 1b/NS4A cofactor peptide (Hepatitis C virus genotype 1b, UniProt P26663)
T1 construct: recombinant HCV NS3 protease (amino acid 1027 to 1206) was cloned in the pET11d bacterial expression vector; made in house; host or cells: E. coli BL21(DE3)pLysS
T1 sequence (P26663 1027-1206, other chains not shown): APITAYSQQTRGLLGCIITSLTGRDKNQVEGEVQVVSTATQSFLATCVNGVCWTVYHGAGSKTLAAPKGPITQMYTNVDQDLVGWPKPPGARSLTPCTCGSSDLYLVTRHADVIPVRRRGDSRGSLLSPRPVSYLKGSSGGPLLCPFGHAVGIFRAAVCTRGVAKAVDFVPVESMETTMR
Test: Recombinant HCV NS3 protease/NS4A cofactor peptide radiometric assay
Type: biochemical, HCV genotype 1b
Settings: read-out: IC50
Procedure: Recombinant HCV NS3 Protease/NS4A Cofactor Peptide Radiometric Assay.
The enzyme was stored at −80° C., thawed on ice and diluted just prior to use in the assay buffer containing the NS4A cofactor peptide.
The substrate used for the NS3 protease/NS4A cofactor peptide radiometric assay, DDIVPC-SMSYTW [SEQ. ID NO. 2], is cleaved between the cysteine and the serine residues by the enzyme. The sequence DDIVPC-SMSYTW [SEQ. ID NO. 2] corresponds to the NS5A/NS5B natural cleavage site in which the cysteine residue in P2 has been substituted for a proline. The peptide substrate DDIVPC-SMSYTW [SEQ. ID NO. […] ID NO. […] [SEQ. ID NO. 5] (molar ratio enzyme: cofactor 1:100) in the absence or presence of inhibitors. The separation of substrate from products is performed by adding avidin-coated agarose beads to the assay mixture followed by filtration. […] ID NO. 4] product found in the filtrate allows for the calculation of the percentage of substrate conversion and of the percentage of inhibition.
Tris and Tris-HCl (UltraPure) were obtained from Gibco-BRL. Glycerol (UltraPure), MES and BSA were purchased from Sigma. TCEP was obtained from Pierce, DMSO from Aldrich and NaOH from Anachemia.
Assay buffer: 50 mM Tris HCl, pH 7.5, 30% (w/v) glycerol, 1 mg/mL BSA, 1 mM TCEP (TCEP added just prior to use from a 1 M stock solution in water).
Substrate: […] [SEQ. ID NO.
ID NO. 3] (˜1 nM final concentration).
The assay was performed in a 96-well polypropylene plate from Costar. Each well contained:
20 μL substrate/tracer in assay buffer;
10 μL±inhibitor in 20% DMSO/assay buffer;
10 μL NS3 protease 1b/NS4 cofactor peptide (molar ratio 1:100).
Blank (no inhibitor and no enzyme) and control (no inhibitor) were also prepared on the same assay plate.
The enzymatic reaction was initiated by the addition of the enzyme/NS4A peptide solution and the assay mixture was incubated for 40 min at 23° C. under gentle agitation. Ten (10) μL of 0.5N NaOH were added and 10 μL 1 M MES, pH 5.8 were added to quench the enzymatic reaction.
Twenty (20) μL of avidin-coated agarose beads (purchased from Pierce) were added in a Millipore MADP N65 filtration plate. The quenched assay mixture was transferred to the filtration plate, and incubated for 60 min at 23° C. under gentle agitation.
The plates were filtered using a Millipore MultiScreen Vacuum Manifold Filtration apparatus, and 40 μL of the filtrate was transferred in an opaque 96-well plate containing 60 μL of scintillation fluid per well.
The % inhibition was calculated with the following equation:
100-[(countsinh-countsblank)/(countsctl-countsblank)×100]

[1] = Table 2, unmarked values: NS3 protease/NS4A cofactor peptide radiometric assay
[2] = Table 1, unmarked values: NS3 protease/NS4A cofactor peptide radiometric assay

Row | Molecule | IC50 [1] | also measured
1 | CCC[C@H](NC(=O)[C@@H]1C[C@@H](OCc2ccccc2)CN1C(=O)[C@@H](NC(=O)[C@@H](NC(=O)[C@@H](CCC(=O)O)NC(=O)[C@H](CC(=O)O)NC(C)=O)C1CCCCC1)C(C)C)C(=O)O [compound 211] (Ac-D[dE][Chg]V[Hyp](Bn)[Nva]-OH) | 0.12 µM | 
2 | CC(=O)N[C@H](C(=O)N[C@H](C(=O)N1C[C@H](OCc2cc(Br)cc(Br)c2)C[C@H]1C(=O)NC1(C(=O)O)CC1)C(C)C)C1CCCCC1 [compound 272] (Ac-[Chg]V[Hyp](X4)[Ac3c]-OH) | 27 µM | 
3 | Ac-DDIVPC [compound 101] |  | IC50 [2]: 46 µM
4 | CC[C@H]1C[C@@]1(NC(=O)[C@@H]1C[C@@H](OCc2cccc3ccccc23)CN1C(=O)[C@@H](NC(=O)[C@@H](NC(C)=O)C1CCCCC1)C(C)C)C(=O)O [compound 514] |  | IC50 (text b180, values of Table 5, 1R,2R versus 1S,2S isomer at P1): 27.5 µM
5 | CCC[C@H](NC(=O)[C@@H]1C[C@@H](OCc2ccccc2)CN1C(=O)[C@@H](NC(=O)[C@@H](NC(=O)[C@H](CC(=O)O)NC(=O)[C@H](CC(=O)O)NC(C)=O)[C@@H](C)CC)C(C)C)C(=O)O [compound 201] (Ac-DDIV[Hyp](Bn)[Nva]-OH) | 7.2 µM | 
6 | CC(=O)N[C@H](C(=O)N[C@H](C(=O)N1C[C@H](Oc2ccc(I)cc2)C[C@H]1C(=O)NC1(C(=O)O)CC1)C(C)C)C1CCCCC1 [compound 249] | 9.7 µM | 
7 | CCC[C@H](NC(=O)[C@@H]1C[C@@H](OCc2cccc3ccccc23)CN1C(=O)[C@@H](NC(=O)[C@@H](NC(=O)[C@H](CC(=O)O)NC(C)=O)[C@@H](C)CC)C(C)C)C(=O)O [compound 219] (Ac-DIV[Hyp](CH2(1-naphthyl))[Nva]-OH) | 2.3 µM | 
8 | Ac-EDIVPC [compound 102] |  | IC50 [2]: 59 µM
9 | CC[C@H](C)[C@H](NC(=O)[C@H](CC(=O)O)NC(=O)CCC(=O)O)C(=O)N[C@H](C(=O)N1CCC[C@H]1C(=O)N[C@@H](CS)C(=O)O)C(C)C [compound 103] (Suc-DIVPC-OH) |  | IC50 [2]: 26 µM
10 | CCC[C@H](NC(=O)[C@@H]1C[C@@H](OCc2cccc3ccccc23)CN1C(=O)[C@@H](NC(=O)[C@@H](NC(=O)CCCC(=O)O)[C@@H](C)CC)C(C)C)C(=O)O [compound 222] (Glutaryl-IV[Hyp](CH2(1-naphthyl))[Nva]-OH) | 20 µM | 
11 | Ac-DDIVIC [compound 119] |  | IC50 [2]: 90 µM
12 | CCC[C@H](NC(=O)[C@@H]1C[C@@H](OCc2ccc3ccccc3c2)CN1C(=O)[C@@H](NC(=O)[C@@H](NC(=O)[C@H](CC(=O)O)NC(=O)[C@H](CC(=O)O)NC(C)=O)[C@@H](C)CC)C(C)C)C(=O)O [compound 208] (Ac-DDIV[Hyp](X1)[Nva]-OH) | 0.71 µM | 
13 | CCC[C@H](NC(=O)[C@@H]1C[C@@H](OCc2cccc3ccccc23)CN1C(=O)[C@@H](NC(=S)[C@@H](NC(=O)CNC(C)=O)[C@@H](C)CC)C(C)C)C(=O)O [compound 236] | 4 µM | 
14 | C=CC[C@H](NC(=O)[C@@H]1CCCN1C(=O)[C@@H](NC(=O)[C@@H](NC(=O)[C@H](CC(=O)O)NC(=O)[C@H](CC(=O)O)NC(C)=O)[C@@H](C)CC)C(C)C)C(=O)O [compound 124] (Ac-DDIVP[AllylGly]-OH) |  | IC50 [2]: 210 µM
15 | CC(=O)N[C@@H](CC(=O)O)C(=O)N[C@@H](CC(=O)O)C(=O)N[C@H](C(=O)N[C@H](C(=O)N1CCC[C@H]1C(=O)N[C@@H](CS)C(=O)O)C(C)C)C(C)(C)C [compound 111] (Ac-DD[Tle]VPC-OH) |  | IC50 [2]: 79 µM
16 | CC(=O)N[C@@H](CC(=O)O)C(=O)N[C@H](CCC(=O)O)C(=O)N[C@H](C(=O)N[C@H](C(=O)N1C[C@H](OCc2cccc3ccccc23)C[C@H]1C(=O)NC1(C(=O)O)CC1)C(C)C)C1CCCCC1 [compound 215] (Ac-D[dE][Chg]V[Hyp](CH2(1-naphthyl))[Ac3c]-OH) | 0.014 µM | 

Row | Molecule | IC50 [1] | also measured
17 | CCC[C@H](NC(=O)[C@@H]1C[C@@H](OCc2ccccc2)CN1C(=O)[C@@H](NC(=O)[C@@H](NC(=O)[C@H](NC(=O)[C@H](CC(=O)O)NC(C)=O)C(C)C)[C@@H](C)CC)C(C)C)C(=O)O [compound 202] (Ac-D[dV]IV[Hyp](Bn)[Nva]-OH) | 0.93 µM | 
18 | CCC[C@H](NC(=O)[C@@H]1C[C@@H](OCc2ccc3ccccc3c2)CN1C(=O)[C@@H](NC(=O)[C@@H](NC(=O)[C@@H](CCC(=O)O)NC(=O)[C@H](CC(=O)O)NC(C)=O)[C@@H](C)CC)C(C)C)C(=O)O [compound 213] (Ac-D[dE]IV[Hyp](X1)[Nva]-OH) | 0.036 µM | 
19 | CC[C@H](C)[C@H](NC(=O)[C@H](NC(=O)[C@H](CC(=O)O)NC(C)=O)C(C)C)C(=O)N[C@H](C(=O)N1CCC[C@H]1C(=O)N[C@@H](CS)C(=O)O)C(C)C [compound 274] (Ac-D[dV]IVPC-OH) | 7.6 µM | 
20 | CC(=O)N[C@@H](CC(=O)O)C(=O)N[C@@H](CCC(=O)O)C(=O)N[C@H](C(=O)N[C@H](C(=O)N[C@@H](CCC(=O)OCc1ccccc1)C(=O)NC1(C(=O)O)CC1)C(C)C)C1CCCCC1 [compound 133] (Ac-DE[Chg]VE(OBn)[Ac3c]-OH) |  | IC50 [2]: 39 µM
21 | CC(=O)N[C@H](C(=O)N[C@H](C(=O)N1C[C@H](OCc2cccc3ccccc23)C[C@H]1C(=O)NC1(C(=O)O)CC1)C1CCCCC1)C1CCCCC1 [compound 231] (Ac-[Chg][Chg][Hyp](CH2(1-naphthyl))[Ac3c]-OH) | 2.6 µM | 
22 | CCC[C@H](NC(=O)[C@@H]1C[C@@H](OCc2cccc3ccccc23)CN1C(=O)[C@@H](NC(=O)[C@@H](NC(C)=O)C1CCCCC1)C(C)C)C(=O)O [compound 252] (Ac-[Chg]V[Hyp](CH2(1-naphthyl))[Nva]-OH) | 20 µM | 
23 | CC[C@H](C)[C@H](NC(=O)[C@H](CC(=O)O)NC(=O)[C@H](CC(=O)O)NC(C)=O)C(=O)N[C@H](C(=O)N1C[C@H](OCc2ccccc2)C[C@H]1C(=O)N[C@@H](CS)C(=O)O)C(C)C [compound 121] (Ac-DDIV[Hyp](Bn)C-OH) |  | IC50 [2]: 1.7 µM
24 | CCC[C@H](NC(=O)[C@@H]1C[C@@H](OCc2cccc3ccccc23)CN1C(=O)[C@@H](NC(=O)[C@H]([C@@H](C)CC)N(C)C(=O)CCC(=O)O)C(C)C)C(=O)O [compound 220] (Suc-[NMeI]V[Hyp](CH2(1-naphthyl))[Nva]-OH) | 31 µM | 
25 | CC(=O)N[C@H](C(=O)N[C@H](C(=O)N1C[C@H](OCc2ccccc2)C[C@H]1C(=O)NC1(C(=O)O)CC1)C1CCCCC1)C1CCCCC1 [compound 234] (Ac-[Chg][Chg][Hyp](Bn)[Ac3c]-OH) | 41 µM | 
26 | CC(=O)N[C@H](C(=O)N[C@H](C(=O)N1C[C@H](Oc2cccc(Br)c2)C[C@H]1C(=O)NC1(C(=O)O)CC1)C(C)C)C1CCCCC1 [compound 240] | 42 µM | 
27 | CC(=O)N[C@H](C(=O)N[C@H](C(=O)N1C[C@H](OCc2cccc(Br)c2)C[C@H]1C(=O)NC1(C(=O)O)CC1)C(C)C)C1CCCCC1 [compound 268] (Ac-[Chg]V[Hyp](X2)[Ac3c]-OH) | 24 µM | 
28 | CC[C@H](C)[C@H](NC(C)=O)C(=O)N[C@H](C(=O)N1C[C@H](OCc2cccc3ccccc23)C[C@H]1C(=O)NC1(C(=O)O)CC1)C(C)C [compound 262] (Ac-IV[Hyp](CH2(1-naphthyl))[Ac3c]-OH) | 40 µM | 
29 | CC[C@H](C)[C@H](NC(=O)[C@H](CCC(=O)O)NC(=O)[C@H](CC(=O)O)NC(C)=O)C(=O)N[C@H](C(=O)N1C[C@H](OCc2cccc(I)c2)C[C@H]1C(=O)NC1(C(=O)O)CC1)C(C)C [compound 233] (Ac-DEIV[Hyp](X6)[Ac3c]-OH) | 0.14 µM | 
30 | CC[C@H](C)[C@H](NC(=O)[C@@H](CCC(=O)O)NC(=O)[C@H](CC(=O)O)NC(C)=O)C(=O)N[C@H](C(=O)N1C[C@H](OCc2ccccc2)C[C@H]1C(=O)N[C@@H](CS)C(=O)O)C(C)C [compound 260] (Ac-D[dE]IV[Hyp](Bn)C-OH) | 0.18 µM | 
31 | CC[C@H](NC(=O)[C@@H]1CCCN1C(=O)[C@@H](NC(=O)[C@@H](NC(=O)[C@H](CC(=O)O)NC(=O)[C@H](CC(=O)O)NC(C)=O)[C@@H](C)CC)C(C)C)C(=O)O [compound 122] (Ac-DDIVP[Abu]-OH) |  | IC50 [2]: 315 µM
32 | CC(C)[C@H](NC(=O)[C@@H](NC(=O)CCCC(=O)O)C1CCCCC1)C(=O)N1C[C@H](OCc2cccc3ccccc23)C[C@H]1C(=O)NC1(C(=O)O)CC1 [compound 226] (Glutaryl-[Chg]V[Hyp](CH2(1-naphthyl))[Ac3c]-OH) | 0.76 µM | 
